Here are results for 20 molecules from patent EP4389121A1, “ANTIVIRAL AMINO ACID DERIVATIVES” (Consejo Superior De Investigaciones Científicas (CSIC), priority 2022, dated 2024).

Like-named read-outs stand apart in the source and are kept apart here.

As a reminder, the EC50 is the concentration that produces a half-maximal response. The EC90 is the concentration needed for an effect of 90%.

The test system of data set [1] is SARS-CoV-2 in Vero-E6 cells. In words: microbe, parasite or virus in culture. Type of data set: cell-based. Conditions: for EC50: read-out: EC50 approx.
Data set [2] deals with SARS-CoV-2. Nature of the data set: Intracellular viral antigen (N protein) accumulation by immunofluorescence, A549-ACE2 cells. Type of data set: cell-based. As to conditions: Severe acute respiratory syndrome coronavirus 2, A549-ACE2, 48 h.
The test system of data set [3] is SARS-CoV-2. In words: Intracellular viral antigen (N protein) accumulation by immunofluorescence, Vero-E6 cells. In kind it is cell-based. Conditions: Severe acute respiratory syndrome coronavirus 2, Vero C1008, 24 h.
The nature of data set [4]: Cytotoxicity by MTT colorimetric assay, Vero-E6. Type of data set: cell-based. As to conditions: African green monkey, uninfected Vero-E6 cells. (Formazan colour is commonly taken as a measure of viable cells.)
Data set [5] deals with vesicular stomatitis virus (VSV-GFP). Nature of the data set: microbe, parasite or virus in culture. As to conditions: A549-ACE2, 16 h. Type of data set: cell-based.
For data set [6], the system named is West Nile virus (WNV-GFP). In words: microbe, parasite or virus in culture. As to conditions: Huh-7, 48 h. Type of data set: cell-based.
Data set [7] can be described thus: in vitro. Conditions: African green monkey.
Data set [8] relates to HCoV 229E (229E-GFP). In words: organism not typed. As to conditions: Huh-7, 48 h.
Procedure: To study the antiviral effect of selected compounds of the family against a distinct human coronavirus, Huh-7 cell monolayers were infected with a GFP-expressing recombinant HCoV 229E (229E-GFP) at MOI 0.01 in the presence of a wide range of compound concentrations (0.4 to 50 µM). Forty-eight hours later cells were fixed by 10 minutes incubation with a 4 % formaldehyde-PBS solution. After extensive washes with PBS, infection efficiency was evaluated by the detection of GFP accumulation by fluorescence microscopy. Nuclei were stained using DAPI (4',6-diamidino-2-phenylindole) dye. Automated imaging was carried out in a SparkCyto (Tecan) multimode plate reader. The total intensity signal present in vehicle-treated (DMSO) conditions was used as reference (100 %).
Setting [9] is: Severe acute respiratory syndrome coronavirus 2, Vero C1008, 72 h.
[10] abbreviates: Severe acute respiratory syndrome coronavirus 2, Vero C1008, approximate, estimated from PCmax and PCmin, Vero-E6, MOI 0.001, 72 h.
Where [11] appears, read: Severe acute respiratory syndrome coronavirus 2, Vero C1008, minimum nominal concentration protecting the Vero-E6 monolayer from virus-induced cell death, MOI 0.001, 72 h, read-out: PCmin.
The mark [12] stands for this setting: Severe acute respiratory syndrome coronavirus 2, Vero C1008, real concentration, Vero-E6, MOI 0.001, 72 h, read-out: PC min real.
Where [13] appears, read: Severe acute respiratory syndrome coronavirus 2, Vero C1008, 72 h, read-out: PC min real.
Setting [14] is: Severe acute respiratory syndrome coronavirus 2, Vero C1008, 72 h, read-out: PCmin.

In data set [1] (72 h), `CCCCCCOC(=O)[C@H](CCC(=O)NCCC1CCN(Cc2ccccc2)CC1)NC(=O)c1ccccc1` [NF0818] showed a PC min real of 13.0 µM and a PCmax real of 51.9 µM. The EC50 in data set [1] (setting [9]) was 9.7 µM.

On to `CCOC(=O)CC[C@H](NC(=O)OCc1ccccc1)C(=O)NCCC1CCN(Cc2ccccc2)CC1` [NF1313], for which the EC50 in data set [1] (setting [10]) was 19 µM. For the same molecule, the minimal effective concentration in data set [1] (setting [11]) was found to be 25 µM; in data set [1] (setting [12]) it was 25.3 µM.

With `CCOC(=O)[C@H](CCC(=O)NCCC1CCN(Cc2ccccc2)CC1)NC(=O)c1ccccc1` [NF1316], the concentration giving a half-maximal response (EC50) in data set [1] (setting [10]) was 19.4 µM. For the same molecule, the minimal effective concentration in data set [1] (setting [11]) is 25 µM; in data set [1] (setting [12]), 25.9 µM.

For `CCOC(=O)[C@H](CCC(=O)NCCC1CCN(Cc2ccccc2)CC1)NC(=O)c1ccc2cc(OC)ccc2c1` [NF1322], in data set [1] (setting [10]), the EC50 was 9.4 µM. In addition, the minimal effective concentration in data set [1] (setting [11]) and in data set [1] (setting [12]) was 12.5 µM in each case.

Regarding `CCCCCCOC(=O)[C@H](CCC(=O)NCCC1CCN(Cc2ccccc2)CC1)NC(=O)c1c[nH]c2ccccc12` [NF1325], the EC50 in data set [1] (setting [10]) was 19.6 µM. The minimal effective concentration in data set [1] (setting [11]) turned out to be 25 µM; in data set [1] (setting [12]), 26.1 µM.

Take `CCCCCCOC(=O)[C@H](CCC(=O)NCCC1CCN(Cc2ccccc2)CC1)NC(=O)c1cc(C)on1` [NF1328, n-Hexyl N^5-(2-(1-benzylpiperidin-4-yl)ethyl)-N^2-(5-methylisoxazole-3-carbonyl)-L-glutaminate]: the EC50 in data set [1] (setting [10]) was 4.9 µM. Further, the minimal effective concentration worked out at 6.25 µM in data set [1] (setting [11]) and 6.5 µM in data set [1] (setting [12]).

Take `CCCCCCOC(=O)[C@H](CCC(=O)NCCC1CCN(Cc2ccccc2)CC1)NC(=O)Cc1cc(C)no1` [NF1334, n-Hexyl N^5-(2-(1-benzylpiperidin-4-yl)ethyl)-N^2-(2-(3-methylisoxazol-5-yl)acetyl)-L-glutaminate]: the EC50 in data set [1] (setting [10]) is 10.5 µM. Also, the minimal effective concentration in data set [1] (setting [11]) came out at 25 µM; in data set [1] (setting [12]), 14 µM.

Consider `CCOC(=O)[C@H](CCC(=O)NCCC1CCN(Cc2ccccc2)CC1)NC(=O)c1cc(=O)c2cc(OC)ccc2o1` [NF1336, Ethyl N^5-(2-(1-benzylpiperidin-4-yl)ethyl)-N^2-(6-methoxy-4-oxo-4H-chromene-2-carbonyl)-L-glutaminate], for which the EC50 in data set [1] (setting [10]) is 18.4 µM. The minimal effective concentration in data set [1] (setting [11]) turned out to be 25 µM; in data set [1] (setting [12]), 24.5 µM.

On to `CCCCCCOC(=O)[C@H](CCC(=O)NCCC1CCN(Cc2ccccc2)CC1)NC(=O)c1cc(=O)c2cc(OC)ccc2o1` [NF1337, n-Hexyl N^5-(2-(1-benzylpiperidin-4-yl)ethyl)-N^2-(6-methoxy-4-oxo-4H-chromene-2-carbonyl)-L-glutaminate], for which the EC50 in data set [1] (setting [10]) is 7.7 µM. Also, the values for the minimal effective concentration in data set [1] (setting [11]) and in data set [1] (setting [12]) were 12.5 µM and 10.3 µM, respectively.

For `CCCCCCOC(=O)[C@H](CCC(=O)NCCC1CCN(Cc2ccccc2)CC1)NC(=O)c1cc(=O)c2c(OC)cc(OC)cc2o1` [NF1340, n-Hexyl N^5-(2-(1-benzylpiperidin-4-yl)ethyl)-N^2-(5,7-dimethoxy-4-oxo-4H-chromene-2-carbonyl)-L-glutaminate], the EC50 in data set [1] (setting [10]) was 41.8 µM. Further, the figures for the minimal effective concentration in data set [1] (setting [11]) and in data set [1] (setting [12]) were 50 µM and 55.7 µM, respectively.

For `CCCCCCOC(=O)[C@H](CCC(=O)NCCC1CCN(Cc2ccccc2)CC1)NC(=O)OC(C)(C)C` [NF1346], the 50% effective concentration (EC50) in data set [1] (setting [9]) was 9.3 µM. Further, the minimal effective concentration is 12.4 µM in data set [1] (setting [13]) and 12.5 µM in data set [1] (setting [14]).

For the molecule `CCCCCCOC(=O)[C@H](CCC(=O)NCCC1CCN(Cc2ccccc2)CC1)NC(=O)OCc1ccccc1` [NF1349], the EC50 in data set [1] (setting [9]) is 4.7 µM; in data set [2], 3 µM; in data set [3] it was 3.1 µM; in data set [5], 36 µM; in data set [6] it was 36 µM; in data set [8], 2 µM. In addition, the minimal effective concentration in data set [1] (setting [13]) was 6.3 µM; in data set [1] (setting [14]), 6.25 µM. Further, the EC90 in data set [2] is 5.5 µM; in data set [3], 7 µM; in data set [5] it was 47 µM; in data set [6], above 50 µM; in data set [8], 10 µM. Also, the CC50 at 48 h in data set [4] was above 50 µM. The same molecule came in with a CC50 in data set [7] above 50 µM.

For `CCCCCCOC(=O)[C@H](CCC(=O)NCCC1CCN(Cc2ccccc2)CC1)NC(=O)c1cccs1` [NF1350], the EC50 in data set [1] (setting [9]) came out at 6.9 µM. The results for the minimal effective concentration in data set [1] (setting [13]) and in data set [1] (setting [14]) were 9.2 µM and 6.25 µM, respectively.

Turning to `CCCCCCOC(=O)[C@H](CCC(=O)NCCC1CCN(Cc2ccccc2)CC1)NC(=O)c1cc(Br)cs1` [NF1351], the EC50 in data set [1] (setting [9]) is 4.3 µM. Besides, the values for the minimal effective concentration in data set [1] (setting [13]) and in data set [1] (setting [14]) were 5.7 µM and 6.25 µM, respectively.

As to `CCCCCCOC(=O)[C@H](CCC(=O)NCCC1CCN(Cc2ccccc2)CC1)NC(=O)c1cc2ccccc2s1` [NF1352], the EC50 in data set [1] (setting [9]) stood at 9.2 µM. Also, the minimal effective concentration worked out at 12.3 µM in data set [1] (setting [13]) and 12.5 µM in data set [1] (setting [14]).

Consider `CCCCCCOC(=O)[C@H](CCC(=O)NCCC1CCN(Cc2ccccc2)CC1)NC(=O)Cc1cc2ccc(Cl)cc2s1` [NF1353], for which, in data set [1] (setting [9]), the EC50 was 4.5 µM. For the same molecule, the minimal effective concentration in data set [1] (setting [13]) is 6 µM; in data set [1] (setting [14]), 6.25 µM.

With `CCCCCCOC(=O)[C@H](CCC(=O)NCCC1CCN(Cc2ccccc2)CC1)NC(=O)c1cc2cccnc2s1` [NF1354], the EC50 in data set [1] (setting [9]) is 20.9 µM. For the same molecule, the minimal effective concentration in data set [1] (setting [13]) amounted to 27.8 µM; in data set [1] (setting [14]) it was 25 µM.

Take `CCOC(=O)[C@H](CCC(=O)NCCC1CCN(Cc2ccccc2)CC1)NC(=O)c1cc2ccccc2oc1=O` [NF1358, Ethyl N^5-(2-(1-benzylpiperidin-4-yl)ethyl)-N^2-(2-oxo-2H-chromene-3-carbonyl)-L-glutaminate]: the EC50 in data set [1] (setting [10]) is 19.1 µM. Also, the minimal effective concentration in data set [1] (setting [11]) amounted to 25 µM; in data set [1] (setting [12]) it was 25.4 µM.

With `CCOC(=O)[C@H](CCC(=O)NCCC1CCN(Cc2ccccc2)CC1)NC(=O)c1ccc2ccccc2n1` [NF1360, Ethyl N^5-(2-(1-benzylpiperidin-4-yl)ethyl)-N^2-(quinoline-2-carbonyl)-L-glutaminate], the EC50 in data set [1] (setting [10]) is 24.3 µM. In addition, the minimal effective concentration in data set [1] (setting [11]) came out at 50 µM; in data set [1] (setting [12]) it was 32.3 µM.

With `O=C(CC[C@H](NC(=O)OCc1ccccc1)C(=O)OCCBr)NCCC1CCN(Cc2ccccc2)CC1` [NF1363, 2-Bromoethyl N^2-((benzyloxy)carbonyl)-N^5-(2-(1-benzylpiperidin-4-yl)ethyl)-L-glutaminate], the EC50 in data set [1] (setting [10]) is 5.4 µM. Further, the minimal effective concentration in data set [1] (setting [11]) was determined as 6.25 µM; in data set [1] (setting [12]) it was 7.3 µM.
